The values that follow come from patent publication US20240308987A1, “SMALL MOLECULE INHIBITOR AGAINST NASOPHARYNGEAL CARCINOMA, PREPARATION METHOD AND APPLICATION THEREOF” (SHENZHEN BAY LABORATORY, priority 2021, published 2024).

Bounds are passed on as bounds.

The test system of this assay is C666-1 cells. Put plainly: C666-1 Cell Viability Assay (Resazurin cytotoxicity test). The assay is classed as cell-based. As to conditions: Homo sapiens, C6661, EB virus-positive C666-1 cells, 72 hours treatment, 100-0.78 micromole/L, read-out: Inhibitory Rate. Here is the method: In order to evaluate the inhibitory effect of the small molecular compound of the present disclosure on EBNA1 at the cellular level, a cytotoxicity test was performed.
As mentioned in the Background of the present disclosure, nasopharyngeal carcinoma is a kind of disease highly associated with latent infection of EB virus. EB virus in latent state only expresses limited proteins to maintain its genome replication, among which EBNA1 protein is an essential functional protein. Studies have confirmed that inhibition of EBNA1 can reduce the proliferation of the corresponding nasopharyngeal carcinoma cells or kill them. Therefore, EB virus-positive nasopharyngeal carcinoma tumor cells (C666-1 cells) are selected for test to verify the effect of the small molecular compound of the present disclosure.
During testing, 100 microliters of different cell lines were inoculated onto a transparent 96-well plate, and 5×10^3 cells were inoculated in each well for C666-1 cells. After the cells were cultured in an incubator under […] at 37° C. for 24 hours, 10 microliters of compound with a concentration ranging from 1 mmol/L to 7.8 micromol/L were added to each well (8 points, double dilution, the final concentration was 100-0.78 micromole/L), and treated in the incubator under carbon dioxide at 37° C. for 72 hours. Cell viability was assessed using the redox indicator Resazurin. After addition of 10 microliters of 600 micromole/liter Resazurin to each well and incubation at 37° C. for 3 hours. Using a Tecan microplate reader, the fluorescence signals were detected at an […]. A software was used to fit the inhibition curve and calculate half-maximal effect concentration (EC50). The selectivity of compound activity was assessed by comparing the EC50 values of EB virus-positive and EB virus-negative cell lines.
With `O=C(O)c1cccc(N2CC(Oc3ccc(CNc4cccnc4)cc3)C2)c1-c1ccccc1` [Example 39a, 6-(3-(4-((pyridin-3-ylamino)methyl)phenoxy)azetidin-1-yl)-[1,1′-biphenyl]-2-carboxylic acid], the EC50 was greater than 50 µM. The result for `O=C(Cc1cccnc1)Nc1ccc(OC2CN(c3ccccc3-c3ccccc3)C2)cc1` [Example 45e, N-(4-((1-([1,1′-biphenyl]-2-yl)azetidin-3-yl)oxy)phenyl)-2-(pyridin-3-yl)acetamide] reads 10 to 50 µM; that for `COC(=O)c1cccc(C#Cc2ccc(CC(=O)Nc3cccnc3)cc2)c1-c1ccccc1` [Example 60, methyl 6-((4-(2-oxo-2-(pyridin-3-ylamino)ethyl)phenyl)ethynyl)-[1,1′-biphenyl]-2-carboxylate], less than 1 µM; that for `O=C(Nc1ccc(OC2CN(c3cccc(C(=O)O)c3)C2)cc1)Nc1cccnc1` [Example 50a, 3-(3-(4-(3-(pyridin-3-yl)ureido)phenoxy)azetidin-1-yl) benzoic acid], 1 to 10 µM.

Turning to `O=C(Cc1ccc(OC2CN(c3cccc(C(=O)NO)c3)C2)cc1)Nc1cccnc1` [Example 43b, N-hydroxy-3-(3-(4-(2-oxo-2-(pyridin-3-ylamino)ethyl)phenoxy)azetidin-1-yl) benzamide], the EC50 is less than 1 µM. The result for `COC(=O)c1cccc(N2CC(Oc3ccc(NC(=O)Nc4cccc(C(F)(F)F)c4)cc3)C2)c1-c1cccc(Cl)c1` [Example 37, methyl 3′-chloro-6-(3-(4-(3-(3-(trifluoromethyl)phenyl)ureido)phenoxy)azetidin-1-yl)-[1,1′-biphenyl]-2-carboxylate] reads 10 to 50 µM; that for `COC(=O)c1cccc(N2CC(Oc3ccc(COc4cccnc4)cc3)C2)c1-c1ccccc1` [Example 17, methyl 6-(3-(4-((pyridin-3-yloxy)methyl)phenoxy)azetidin-1-yl)-[1,1′-biphenyl]-2-carboxylate], 1 to 10 µM; that for `COC(=O)c1cccc(N2CC(Oc3ccc(NC(=O)c4cccnc4)cc3)C2)c1-n1cccc1` [Example 31, methyl 3-(3-(4-(nicotinamido)phenoxy)azetidin-1-yl)-2-(1H-pyrrol-1-yl) benzoate], 10 to 50 µM.

Turning to `O=C(O)c1cccc(N2CC(Oc3ccc(COc4cccnc4)cc3)C2)c1-n1cccc1` [Example 1a, 3-(3-(4-((pyridin-3-yloxy)methyl)phenoxy)azetidin-1-yl)-2-(1H-pyrrol-1-yl) benzoic acid], the EC50 lay within 1 to 10 µM. The figure for `O=C(Nc1ccc(OC2CN(c3cccc(C(=O)NO)c3-c3ccccc3)C2)cc1)Nc1cccnc1` [Example 42b, N-hydroxy-6-(3-(4-(3-(pyridin-3-yl)ureido)phenoxy)azetidin-1-yl)-[1,1′-biphenyl]-2-carboxamide] is less than 1 µM.

Consider `O=C(Cc1cccnc1)Nc1ccc(C#Cc2cccc(C(=O)O)c2-c2ccccc2)cc1` [Example 62a, 6-((4-(2-(pyridin-3-yl)acetamido)phenyl)ethynyl)-[1,1′-biphenyl]-2-carboxylic acid], for which the EC50 was less than 1 µM.

As for `O=C(Cc1ccc(OC2CN(c3ccccc3)C2)cc1)Nc1cccnc1` [Example 43c, 2-(4-((1-phenylazetidin-3-yl)oxy)phenyl)-N-(pyridin-3-yl) acetamide], the EC50 was in the range of 10 to 50 µM.

As for `COC(=O)c1cccc(N2CC(Oc3ccc(COc4cnccc4C)cc3)C2)c1-n1cccc1` [Example 2, methyl 3-(3-(4-((4-methylpyridin-3-yloxy)methyl)phenoxy)azetidin-1-yl)-2-(1H-pyrrol-1-yl) benzoate], the EC50 was greater than 50 µM. For the molecule `COC(=O)c1cccc(N2CC(Oc3ccc(COc4cccnc4)c(Cl)c3)C2)c1-n1cccc1` [Example 19, methyl 3-(3-(3-chloro-4-((pyridin-3-yloxy)methyl)phenoxy)azetidin-1-yl)-2-(1H-pyrrol-1-yl) benzoate], the EC50 lay within 10 to 50 µM. `O=C(O)c1cccc(N2CC(Oc3ccc(COc4cccs4)cc3)C2)c1-n1cccc1` [Example 30a, 2-(1H-pyrrol-1-yl)-3-(3-(4-((thiophen-2-yloxy)methyl)phenoxy)azetidin-1-yl) benzoic acid]: the EC50 is greater than 50 µM. In the case of `O=C(NO)c1cccc(N2CC(Oc3ccc(COc4cncnc4)cc3)C2)c1-n1cccc1` [Example 14b, N-hydroxy-3-(3-(4-((pyrimidin-5-yloxy)methyl)phenoxy)azetidin-1-yl)-2-(1H-pyrrol-1-yl) benzamide], the EC50 lay within 1 to 10 µM.

For the molecule `COC(=O)c1cccc(N2CC(Oc3ccc(CNc4cccnc4)cc3)C2)c1-c1cccc(Cl)c1` [Example 38, methyl 3′-chloro-6-(3-(4-((pyridin-3-ylamino)methyl)phenoxy)azetidin-1-yl)-[1,1′-biphenyl]-2-carboxylate], the EC50 was in the range of 10 to 50 µM.

For `O=C(O)c1cccc(N2CC(Oc3ccc(COc4cnccn4)cc3)C2)c1-n1cccc1` [Example 13a, 3-(3-(4-((pyrazin-2-yloxy)methyl)phenoxy)azetidin-1-yl)-2-(1H-pyrrol-1-yl) benzoic acid], the EC50 is greater than 50 µM. As to `COC(=O)c1cccc(N2CC(Oc3ccc(COc4ccc(OC)nc4)cc3)C2)c1-n1cccc1` [Example 4, methyl 3-(3-(4-(((6-methoxypyridin-3-yl)oxy)methyl)phenoxy)azetidin-1-yl)-2-(1H-pyrrol-1-yl) benzoate], the EC50 is greater than 50 µM. The result for `COC(=O)c1cccc(N2CC(Oc3ccc(NC(=O)Cc4cccnc4)cc3)C2)c1C` [Example 53, methyl 2-methyl-3-(3-(4-(2-(pyridin-3-yl)acetamido)phenoxy)azetidin-1-yl) benzoate] reads 10 to 50 µM; that for `O=C(Nc1ccc(OC2CN(c3cccc(C(=O)O)c3-n3cccc3)C2)cc1)c1cccnc1` [Example 31a, 3-(3-(4-(nicotinoamido)phenoxy)azetidin-1-yl)-2-(1H-pyrrol-1-yl) benzoic acid], 10 to 50 µM. The result for `O=C(NO)c1cccc(N2CC(Oc3ccc(OCc4cccnc4)cc3)C2)c1-n1cccc1` [Example 24b, N-hydroxy-3-(3-(4-(pyridin-3-ylmethoxy)phenoxy)azetidin-1-yl)-2-(1H-pyrrol-1-yl) benzamide] reads less than 1 µM; that for `O=C(Nc1ccc(OC2CN(c3cccc(C(=O)NO)c3-n3cccc3)C2)cc1)c1cccnc1` [Example 31b, N-(4-((1-(3-(hydroxycarbamoyl)-2-(1H-pyrrol-1-yl)phenyl)azetidin-3-yl)oxy)phenyl) nicotinamide], less than 1 µM; that for `COC(=O)c1cccc(N2CC(Oc3ccc(NC(=O)Nc4cncc(C)c4)cc3)C2)c1-n1cccc1` [Example 47, methyl 3-(3-(4-(3-(5-methylpyridin-3-yl)ureido)phenoxy)azetidin-1-yl)-2-(1H-pyrrol-1-yl) benzoate], 10 to 50 µM. The figure for `COC(=O)c1cccc(N2CC(Oc3ccc(Oc4ccncc4)cc3)C2)c1-n1cccc1` [Example 26, methyl 3-(3-(4-(pyridin-4-yloxy)phenoxy)azetidin-1-yl)-2-(1H-pyrrol-1 - yl) benzoate] is 1 to 10 µM; for `COC(=O)c1cccc(N2CC(Oc3ccc(CNc4cccnc4)cc3)C2)c1-c1ccccc1` [Example 39, methyl 6-(3-(4-((pyridin-3-ylamino)methyl)phenoxy)azetidin-1-yl)-[1,1′-biphenyl]-2-carboxylate] it is greater than 50 µM; for `COC(=O)c1cccc(C#Cc2ccc(CC(=O)Nc3cccnc3)cc2)c1-c1ccc2cc[nH]c2c1` [Example 61, methyl 2-(1H-indol-6-yl)-3-((4-(2-oxo-2-(pyridin-3-ylamino)ethyl)phenyl)ethynyl) benzoate] it is less than 1 µM. On to `COC(=O)c1cccc(N2CC(Oc3ccc(NC(=O)Nc4cccnc4)cc3)C2)c1-n1cccc1` [Example 34, methyl 3-(3-(4-(3-(pyridin-3-yl)ureido)phenoxy)azetidin-1-yl)-2-(1H-pyrrol-1-yl) benzoate], for which the EC50 is less than 1 µM. The result for `O=C(Cc1cccnc1)Nc1ccc(OC2CN(c3cccc(C(=O)O)c3Cl)C2)cc1` [Example 55a, 2-chloro-3-(3-(4-(2-(pyridin-3-yl)acetamido)phenoxy)azetidin-1-yl) benzoic acid] reads 10 to 50 µM. The figure for `COC(=O)c1cccc(C#Cc2ccc(NC(=O)Nc3cccnc3)cc2)c1-c1cccc(O)c1` [Example 63, methyl 3′-hydroxyl-6-((4-(3-(pyridin-3-yl)ureido)phenyl)ethynyl)-[1,1′-biphenyl]-2-carboxylate] is less than 1 µM. Take `COC(=O)c1cccc(N2CC(Oc3ccc(COc4ccccn4)cc3)C2)c1-n1cccc1` [Example 12, methyl 3-(3-(4-((pyridin-2-yloxy)methyl)phenoxy)azetidin-1-yl)-2-(1H-pyrrol-1-yl) benzoate]: the EC50 is greater than 50 µM. In the case of `Cc1cncc(NC(=O)Nc2ccc(OC3CN(c4cccc(C(=O)O)c4-n4cccc4)C3)cc2)c1` [Example 47a, 3-(3-(4-(3-(5-methylpyridin-3-yl)ureido)phenoxy)azetidin-1-yl)-2-(1H-pyrrol-1-yl) benzoic acid], the EC50 is less than 1 µM.
